{"source": "paper PMC10797667", "about": "(ACS catalysis, 2020)", "key": {"[1]": {"molecular_target": "ANT4' (aminoglycoside nucleotidyl transferase 4') (Staphylococcus aureus, UniProt P05057)", "assay": "X-ray crystal structure", "assay_type": "binding", "settings": "binary complex, 0.1-0.2 M MgCl2, pH 7-8; active site"}, "[2]": {"molecular_target": "ANT4' (aminoglycoside nucleotidyl transferase 4') (Staphylococcus aureus, UniProt P05057, E52D/T130K)", "assay": "biochemical"}, "[3]": {"molecular_target": "ANT4' (aminoglycoside nucleotidyl transferase 4') (Staphylococcus aureus, UniProt P05057, T130K)", "assay": "biochemical"}}}
{"molecule": "NC[C@@H]1O[C@H](O[C@H]2[C@@H](O)[C@H](O[C@@H]3[C@@H](O)[C@H](N)C[C@H](N)[C@H]3O[C@H]3O[C@H](CN)[C@@H](O)[C@H](O)[C@H]3N)O[C@@H]2CO)[C@H](N)[C@@H](O)[C@@H]1O", "note": "[neomycin]", "values": [{"measurement": "X-ray crystal structure", "setting": "[1]", "result": "A binary neomycin complex was also determined in the wild-type ANT4’ enzyme"}, {"measurement": "Kd", "setting": "[2]", "result": "870 ± 80", "unit": "nM"}, {"measurement": "Kd", "setting": "[3]", "result": "340 ± 30", "unit": "nM"}]}
